Experimental data as given in patent US20220372031A1, “NOVEL TRICYCLIC AROMATIC HETEROCYCLIC COMPOUND, PREPARATION METHOD THEREFOR, PHARMACEUTICAL COMPOSITION AND APPLICATION THEREOF” (SHANGHAI LONGWOOD BIOPHARMACEUTICALS CO., LTD., priority 2019, published 2022).

The molecules below were run against T1, PD-1/PD-L1 (Homo sapiens, UniProt Q9NZQ7) (assay: PD-1/PD-L1 homogeneous time-resolved fluorescence (HTRF) binding assay). Conditions: PD-1/PD-L1 HTRF binding, ~3 nM PD1, 10 nM PD-L1, 25° C., PBS pH 7.4.
T1 construct: Recombinant human PD-L1 protein (19-238) with a His-tagged at the C-terminus; purchased AcroBiosystems PD1-H5229 (PD-L1); PD1-H5257 (PD-1)
T1 sequence (Q9NZQ7 19-238): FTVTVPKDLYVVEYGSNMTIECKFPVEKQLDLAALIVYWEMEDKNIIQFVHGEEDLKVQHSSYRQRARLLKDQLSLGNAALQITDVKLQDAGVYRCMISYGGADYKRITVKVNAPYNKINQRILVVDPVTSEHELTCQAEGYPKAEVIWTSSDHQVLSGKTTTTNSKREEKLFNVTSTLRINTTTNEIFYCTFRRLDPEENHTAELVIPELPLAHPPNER
Description: Assays were performed in standard black 384-well polystyrene plates and a final volume was 20 μL. The inhibitor was first serially diluted with DMSO and added to the wells of the plate, followed by the addition of other reaction components. The final concentration of DMSO in the assay was 1%. Assays were performed at 25° C. in PBS buffer (pH 7.4) containing 0.05% Tween-20 and 0.1% BSA. Recombinant human PD-L1 protein (19-238) with a His-tagged at the C-terminus was purchased from AcroBiosystems (PD1-H5229). Recombinant human PD-1 protein (25-167) with an Fc tag at the C-terminus was also purchased from AcroBiosystems (PD1-H5257). The PD-L1 and PD-1 proteins were diluted in assay buffer and then […] of the solution was extracted and added to the wells of the plate. Plates were centrifuged and proteins and inhibitors were preincubated for 40 minutes. After incubation, 0.1 μl of HTRF detection buffer containing europium […] labeled anti-human IgG (PerkinElmer-AD0212), Fc-specific and anti-His SureLight®-Allophycocyanin (APC, PerkinElmer-AD0059H) conjugated antibodies was added. After centrifugation, the plates were incubated at 25° C. for 60 minutes. Data was read in a PHERAstar FS plate reader (665 nm/620 nm ratio). Final concentrations in the assay were ˜3 nM PD1, 10 nM PD-L1, 1 nM europium anti-human IgG, and 20 nM anti-His-allophycocyanin. Activity data were fitted using GraphPad Prism 5_0 software to derive IC50 values for inhibitors.
Work on `N#Cc1c2c(cc3nc(-c4cccc(-c5cccc(Nc6nc(C(F)F)nc7cc(CN8CC[C@@H](O)C8)cnc67)c5Cl)c4Cl)oc13)[C@H](N1CC[C@@H](C(=O)NS(=O)(=O)C3CC3)C1)CC2` [Compound 087] yielded an IC50 of no more than 0.01 µM.
`CC1(S(=O)(=O)NC(=O)[C@@H]2CCN([C@@H]3CCc4c3cc3nc(-c5cccc(-c6cccc(Nc7nc(C(F)F)nc8cc(CN9CC[C@@H](O)C9)cnc78)c6Cl)c5Cl)oc3c4C#N)C2)CC1` [Compound 088] was tested, and the IC50 was no more than 0.01 µM.
For `COc1nc(-c2cccc(-c3cccc(-c4nc5cc6c(c(C#N)c5o4)CC[C@H]6N4CC[C@@H](C(=O)O)C4)c3Cl)c2Cl)cnc1CN1CC[C@@H](O)C1` [Compound 162], the IC50 was no more than 0.01 µM.
Molecule `COc1nc(-c2cccc(-c3cccc(-c4nc5cc6c(c(C#N)c5o4)CC[C@H]6N4CC[C@@H](C(=O)O)C4)c3Cl)c2C)cnc1CN1CC[C@@H](O)C1` [Compound 175] has an IC50 of no more than 0.01 µM.
`COc1nc(-c2cccc(-c3cccc(-c4nc5cc6c(c(C#N)c5o4)CC[C@H]6N4CC[C@@H](C(=O)O)C4)c3C)c2Cl)cnc1CN1CC[C@@H](O)C1` [Compound 182] showed an IC50 of no more than 0.01 µM.
For `COc1nc(-c2cccc(-c3cccc(-c4nc5cc6c(c(C#N)c5o4)CC[C@H]6N4CC[C@@H](C(=O)NS(=O)(=O)C5CC5)C4)c3Cl)c2C)cnc1CN1CC[C@@H](O)C1` [Compound 231], the IC50 was no more than 0.01 µM.
`COc1nc(-c2cccc(-c3cccc(-c4nc5cc6c(c(C#N)c5o4)CC[C@H]6N4CC[C@@H](C(=O)NS(=O)(=O)C5CC5)C4)c3C)c2Cl)cnc1CN1CC[C@@H](O)C1` [Compound 232] gave an IC50 of no more than 0.01 µM.
In the case of `COc1nc(-c2cccc(-c3cccc(-c4nc5cc6c(c(C#N)c5o4)CC[C@H]6N4CC[C@@H](C(=O)NS(=O)(=O)C5(C)CC5)C4)c3Cl)c2C)cnc1CN1CC[C@@H](O)C1` [Compound 233], the IC50 is reported as no more than 0.01 µM.
`COc1nc(-c2cccc(-c3cccc(-c4nc5cc6c(c(C#N)c5o4)CC[C@H]6N4CC[C@@H](C(=O)NS(=O)(=O)C5(C)CC5)C4)c3C)c2Cl)cnc1CN1CC[C@@H](O)C1` [Compound 234] was tested, and the IC50 was no more than 0.01 µM.
`Cc1c(-c2nc3cc4c(c(C#N)c3o2)CC[C@H]4N2CC[C@@H](C(=O)O)C2)cccc1-c1cccc(Nc2nccc3cc(CN4CC[C@@H](O)C4)cnc23)c1Cl` [Compound 235] was tested, and the IC50 was no more than 0.01 µM.
Molecule `N#Cc1c2c(cc3nc(-c4cccc(-c5cccc(Nc6nccc7cc(CN8CC[C@@H](O)C8)cnc67)c5Cl)c4Cl)oc13)[C@H](N1CC[C@@H](C(=O)NS(=O)(=O)C3CC3)C1)CC2` [Compound 236] has an IC50 of no more than 0.01 µM.
Work on `Cc1c(Nc2nccc3cc(CN4CC[C@@H](O)C4)cnc23)cccc1-c1cccc(-c2nc3cc4c(c(C#N)c3o2)CC[C@H]4N2CC[C@@H](C(=O)NS(=O)(=O)C3CC3)C2)c1Cl` [Compound 237] yielded an IC50 of no more than 0.01 µM.
With `Cc1c(-c2nc3cc4c(c(C#N)c3o2)CC[C@H]4N2CC[C@@H](C(=O)NS(=O)(=O)C3CC3)C2)cccc1-c1cccc(Nc2nccc3cc(CN4CC[C@@H](O)C4)cnc23)c1Cl` [Compound 238] the IC50 was no more than 0.01 µM.
`Cc1c(Nc2nccc3cc(CN4CC[C@@H](O)C4)cnc23)cccc1-c1cccc(-c2nc3cc4c(c(C#N)c3o2)CC[C@H]4N2CC[C@@H](C(=O)NS(=O)(=O)C3(C)CC3)C2)c1C` [Compound 239] gave an IC50 of no more than 0.01 µM.
Molecule `CC1(S(=O)(=O)NC(=O)[C@@H]2CCN([C@@H]3CCc4c3cc3nc(-c5cccc(-c6cccc(Nc7nccc8cc(CN9CC[C@@H](O)C9)cnc78)c6Cl)c5Cl)oc3c4C#N)C2)CC1` [Compound 240] has an IC50 of no more than 0.01 µM.
In the case of `Cc1c(Nc2nccc3cc(CN4CC[C@@H](O)C4)cnc23)cccc1-c1cccc(-c2nc3cc4c(c(C#N)c3o2)CC[C@H]4N2CC[C@@H](C(=O)NS(=O)(=O)C3(C)CC3)C2)c1Cl` [Compound 241], the IC50 is reported as no more than 0.01 µM.
In the case of `Cc1c(-c2nc3cc4c(c(C#N)c3o2)CC[C@H]4N2CC[C@@H](C(=O)NS(=O)(=O)C3(C)CC3)C2)cccc1-c1cccc(Nc2nccc3cc(CN4CC[C@@H](O)C4)cnc23)c1Cl` [Compound 242], the IC50 is reported as no more than 0.01 µM.
`Cc1c(Nc2nccc3cc(CN4CC[C@@H](O)C4)cnc23)cccc1-c1cccc(-c2cc3cc4c(c(C#N)c3o2)CC[C@@H]4N2CC[C@@H](C(=O)O)C2)c1C` [Compound 243] gave an IC50 of no more than 0.01 µM.
In the case of `Cc1c(Nc2nccc3cc(CN4CC[C@@H](O)C4)cnc23)cccc1-c1cccc(-c2cc3cc4c(c(C#N)c3o2)CC[C@H]4N2CC[C@@H](C(=O)O)C2)c1C` [Compound 244], the IC50 is reported as no more than 0.01 µM.
In the case of `N#Cc1c2c(cc3cc(-c4cccc(-c5cccc(Nc6nccc7cc(CN8CC[C@@H](O)C8)cnc67)c5Cl)c4Cl)oc13)[C@H](N1CC[C@@H](C(=O)O)C1)CC2` [Compound 245], the IC50 is reported as no more than 0.01 µM.
Work on `Cc1c(Nc2nccc3cc(CN4CC[C@@H](O)C4)cnc23)cccc1-c1cccc(-c2cc3cc4c(c(C#N)c3o2)CC[C@H]4N2CC[C@@H](C(=O)O)C2)c1Cl` [Compound 246] yielded an IC50 of no more than 0.01 µM.
Work on `Cc1c(-c2cc3cc4c(c(C#N)c3o2)CC[C@H]4N2CC[C@@H](C(=O)O)C2)cccc1-c1cccc(Nc2nccc3cc(CN4CC[C@@H](O)C4)cnc23)c1Cl` [Compound 247] yielded an IC50 of no more than 0.01 µM.
In the case of `Cc1c(Nc2nccc3cc(CN4CC[C@@H](O)C4)cnc23)cccc1-c1cccc(-c2cc3cc4c(c(C#N)c3o2)CC[C@H]4N2CC[C@@H](C(=O)NS(=O)(=O)C3CC3)C2)c1C` [Compound 248], the IC50 is reported as no more than 0.01 µM.
In the case of `N#Cc1c2c(cc3cc(-c4cccc(-c5cccc(Nc6nccc7cc(CN8CC[C@@H](O)C8)cnc67)c5Cl)c4Cl)oc13)[C@H](N1CC[C@@H](C(=O)NS(=O)(=O)C3CC3)C1)CC2` [Compound 249], the IC50 is reported as no more than 0.01 µM.
`Cc1c(Nc2nccc3cc(CN4CC[C@@H](O)C4)cnc23)cccc1-c1cccc(-c2cc3cc4c(c(C#N)c3o2)CC[C@H]4N2CC[C@@H](C(=O)NS(=O)(=O)C3CC3)C2)c1Cl` [Compound 250] was tested, and the IC50 was no more than 0.01 µM.
In the case of `Cc1c(-c2cc3cc4c(c(C#N)c3o2)CC[C@H]4N2CC[C@@H](C(=O)NS(=O)(=O)C3CC3)C2)cccc1-c1cccc(Nc2nccc3cc(CN4CC[C@@H](O)C4)cnc23)c1Cl` [Compound 251], the IC50 is reported as no more than 0.01 µM.
`Cc1c(Nc2nccc3cc(CN4CC[C@@H](O)C4)cnc23)cccc1-c1cccc(-c2cc3cc4c(c(C#N)c3o2)CC[C@H]4N2CC[C@@H](C(=O)NS(=O)(=O)C3(C)CC3)C2)c1C` [Compound 252] was tested, and the IC50 was no more than 0.01 µM.
In the case of `CC1(S(=O)(=O)NC(=O)[C@@H]2CCN([C@@H]3CCc4c3cc3cc(-c5cccc(-c6cccc(Nc7nccc8cc(CN9CC[C@@H](O)C9)cnc78)c6Cl)c5Cl)oc3c4C#N)C2)CC1` [Compound 253], the IC50 is reported as no more than 0.01 µM.
In the case of `COc1nc(-c2cccc(-c3cccc(-c4cc5cc6c(c(C#N)c5o4)CC[C@H]6N4CC[C@@H](C(=O)O)C4)c3C)c2C)cnc1CN1CC[C@@H](O)C1` [Compound 256], the IC50 is reported as no more than 0.01 µM.
`COc1nc(-c2cccc(-c3cccc(-c4cc5cc6c(c(C#N)c5o4)CC[C@H]6N4CC[C@@H](C(=O)O)C4)c3Cl)c2Cl)cnc1CN1CC[C@@H](O)C1` [Compound 257] gave an IC50 of no more than 0.01 µM.
`COc1nc(-c2cccc(-c3cccc(-c4cc5cc6c(c(C#N)c5o4)CC[C@H]6N4CC[C@@H](C(=O)O)C4)c3Cl)c2C)cnc1CN1CC[C@@H](O)C1` [Compound 258] showed an IC50 of no more than 0.01 µM.
`COc1nc(-c2cccc(-c3cccc(-c4cc5cc6c(c(C#N)c5o4)CC[C@H]6N4CC[C@@H](C(=O)O)C4)c3C)c2Cl)cnc1CN1CC[C@@H](O)C1` [Compound 259] was tested, and the IC50 was no more than 0.01 µM.
Work on `COc1nc(-c2cccc(-c3cccc(-c4cc5cc6c(c(C#N)c5o4)CC[C@H]6N4CC[C@@H](C(=O)NS(=O)(=O)C5CC5)C4)c3C)c2C)cnc1CN1CC[C@@H](O)C1` [Compound 260] yielded an IC50 of no more than 0.01 µM.
`COc1nc(-c2cccc(-c3cccc(-c4cc5cc6c(c(C#N)c5o4)CC[C@H]6N4CC[C@@H](C(=O)NS(=O)(=O)C5CC5)C4)c3Cl)c2Cl)cnc1CN1CC[C@@H](O)C1` [Compound 261] was tested, and the IC50 was no more than 0.01 µM.
`COc1nc(-c2cccc(-c3cccc(-c4cc5cc6c(c(C#N)c5o4)CC[C@H]6N4CC[C@@H](C(=O)NS(=O)(=O)C5CC5)C4)c3Cl)c2C)cnc1CN1CC[C@@H](O)C1` [Compound 262] was tested, and the IC50 was no more than 0.01 µM.
Work on `COc1nc(-c2cccc(-c3cccc(-c4cc5cc6c(c(C#N)c5o4)CC[C@H]6N4CC[C@@H](C(=O)NS(=O)(=O)C5CC5)C4)c3C)c2Cl)cnc1CN1CC[C@@H](O)C1` [Compound 263] yielded an IC50 of no more than 0.01 µM.
In the case of `COc1nc(-c2cccc(-c3cccc(-c4cc5cc6c(c(C#N)c5o4)CC[C@H]6N4CC[C@@H](C(=O)NS(=O)(=O)C5(C)CC5)C4)c3C)c2C)cnc1CN1CC[C@@H](O)C1` [Compound 264], the IC50 is reported as no more than 0.01 µM.
Molecule `COc1nc(-c2cccc(-c3cccc(-c4cc5cc6c(c(C#N)c5o4)CC[C@H]6N4CC[C@@H](C(=O)NS(=O)(=O)C5(C)CC5)C4)c3Cl)c2Cl)cnc1CN1CC[C@@H](O)C1` [Compound 265] has an IC50 of no more than 0.01 µM.
Work on `COc1nc(-c2cccc(-c3cccc(-c4cc5cc6c(c(C#N)c5o4)CC[C@H]6N4CC[C@@H](C(=O)NS(=O)(=O)C5(C)CC5)C4)c3Cl)c2C)cnc1CN1CC[C@@H](O)C1` [Compound 266] yielded an IC50 of no more than 0.01 µM.
`COc1nc(-c2cccc(-c3cccc(-c4cc5cc6c(c(C#N)c5o4)CC[C@H]6N4CC[C@@H](C(=O)NS(=O)(=O)C5(C)CC5)C4)c3C)c2Cl)cnc1CN1CC[C@@H](O)C1` [Compound 267] showed an IC50 of no more than 0.01 µM.
With `COc1nc(-c2cccc(-c3cccc(-c4nc5cc6c(c(C#N)c5o4)CC[C@H]6N4CC[C@@H](C(=O)O)C4)c3Cl)c2C)cnc1CNC[C@@H]1CCC(=O)N1` [Compound 268] the IC50 was no more than 0.01 µM.
